According to US20230023009A1, “HETEROCYCLIC COMPOUNDS AND METHODS OF USE THEREOF” (SPARCBIO LLC, priority 2020, published 2023):

Assays:
NCI-H358 cells = assay: 3D cell proliferation assay (Cell Titer-Glo 3D, 7 days); type: cell-based; settings: Homo sapiens, NCI-H358, 168 h, NCI-H358 3D, ultra-low attachment plate
Method: NCI-H358 cells (ATCC® CRL-5807™) were plated in a 384-well Black/Clear Round Bottom Ultra-Low Attachment Microplate (Corning) in medium (RPMI-1640+10% FBS) at a density of 1000 cells in 50 μL per well, then incubated overnight at 37° C. and 5% CO2. Cells were treated with test compounds at 9 concentrations within a specified concentration range (e.g., 0.5 nM-10 μM) for generation of dose response curves. Test compounds were prepared by 1:3 serial dilution in DMSO from a specified starting concentration (e.g., 20 μM, 2 μM or 0.2 μM) and then added to wells of the assay plate in a total volume of 150 nL DMSO. The cells were further incubated at 37° C. and 5% CO2 for 7 days. Cell viability was assessed by adding 40 μL of Cell Titer-Glo® 3D reagent (Cat. No.: G9683, Promega) to each well and reading luminescence after mixing and incubation of the samples. The IC50 value of each test compound was calculated with XLFit curve fitting software.

[1] = test system: Phosphorylation of ERK in NCI-H358 cells; assay: pERK assay (Method II, homogeneous TR-FRET); type: cell-based; settings: Homo sapiens, 4 hrs compound treatment
Method: Method II. Phosphorylation of ERK was assessed by a homogeneous TR-FRET assay (Advanced phospho-ERK (Thr202/Tyr204) cellular kit; Cat. #64AERPEH, Cisbio). In brief, NCI-H358 cells were seeded in a 384-well culture plate at a density of 6000 cells in 40 μL medium/well and grown overnight at 37° C. and 5% CO2. Each test compound was dosed in duplicate in a 10-dose 3-fold titration starting at 10 μM or 2 μM. The culture plate was then incubated for 4 hrs in the incubator. At the end of the compound treatment, the medium was removed, 35 μL of lysis buffer was added to each well, and the plate was agitated on a plate shaker for 40 mins at 4° C. An antibody cocktail of phospho-ERK1/2 Eu Cryptate antibody and Phospho-ERK1/2 d2 antibody was prepared by separately diluting the antibodies 20-fold with detection buffer and then mixing them together. 3.4 μL of antibody cocktail was dispensed to each well of an empty 384-well white ProxiPlus assay plate (Perkin Elmer), and the plate briefly centrifuged. 13.6 μL of cell lysate was then added to the antibody-containing wells, and the plate was briefly centrifuged and then incubated 2 hrs at room temperature. The plate was read on a fluorescence plate reader (Envision2104, Perkin Elmer), with an excitation wavelength of 337 nm and emission wavelengths of 615 nm and 665 nm. The IC50 value of each test compound was calculated with XLFit curve fitting software. Results are shown in Table 6. ‘+++’ indicates IC50 values≤300 nM, ‘++’ indicates IC50 values between 300 nM-3 μM, and ‘+’ indicates IC50 values≥3 μM.

KRAS G12C protein = KRAS G12C protein (Homo sapiens, UniProt P01116, G12C); assay: Nucleotide exchange assay (Method III, KRAS G12C/Raf-RBD TR-FRET); type: biochemical; settings: SOS1-mediated exchange of GDP for GTP, 18 hr compound incubation
Sequence of KRAS G12C protein (P01116 1-188 isoform P01116-2 G12C): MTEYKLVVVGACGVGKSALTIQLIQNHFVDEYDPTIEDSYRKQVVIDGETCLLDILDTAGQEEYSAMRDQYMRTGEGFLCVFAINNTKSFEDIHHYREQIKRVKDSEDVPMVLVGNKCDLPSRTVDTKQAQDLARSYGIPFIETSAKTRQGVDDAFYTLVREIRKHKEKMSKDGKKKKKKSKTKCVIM
Method: Method III. Inhibition of SOS1-mediated exchange of GDP for GTP on the KRAS G12C protein was measured in a biochemical assay that monitors association of KRAS G12C protein with the Ras-binding domain of Raf (Raf-RBD), where the association is coupled to exchange of GDP to GTP on the KRAS G12C protein. The assay was performed at WuXi AppTec (Shanghai, China). Compounds were serially diluted in 3-fold dilutions to 11 concentrations and spotted into the wells of an assay plate in a total volume of 150 nL DMSO per well. A 2× enzyme mix was prepared by diluting GDP-bound, His-tagged KRAS G12C to 25 nM in assay buffer. 10 μL/well of 2× enzyme mix was added to all wells, and the plate was sealed and incubated overnight (18 hr) at 23° C. 4×SOS1/GDP and 4×SOS1/GTP were prepared in assay buffer. 5 μL/well of 4×SOS1/GDP mix was added to negative control wells, 5 μL/well of 4×SOS1/GTP mix was added to the remaining wells, and the plate was further incubated at 23° C. for 1 hr. Finally, FLAG-tagged Raf-RBD is added to the reaction mixture along with a pair of FRET donor- and acceptor-conjugated antibodies specific for the FLAG-tagged Raf-RBD and His-tagged KRAS G12C proteins. A 4×Raf-RBD/Tb-anti-FLAG/D2-anti-His mix was prepared in assay buffer, and 5 μL/well of the mix was added to all wells, followed by incubation at room temperature for 2 hr. The TR-FRET signals, which increase with association of KRAS G12C and Raf-RBD, were measured on a Perkin Elmer Envision 2104 plate reader, and data were analyzed by non-linear regression to obtain IC50 values for inhibition by compounds. Table 2 includes results of the assay of Method III. ‘+++’ indicates IC50 values≤300 nM, ‘++’ indicates IC50 values between 300 nM-3 μM, and ‘+’ indicates IC50 values≥3 μM.

MIA PaCa-2 = assay: Cell proliferation assay panel (Cell Titer-Glo, 72 hr); type: cell-based; settings: Homo sapiens, MIA PaCa-2, 72 h
Method: Potency of compounds was determined in cell proliferation assays in a panel of cancer cell lines. Cells were seeded in 384-well plates (Corning, Cat. #3765) at specified densities in 40 μL of culture medium and incubated overnight at 37° C. in a 5% CO2 incubator (culture conditions). With a robotic dispenser, serially diluted test compounds were added in a volume of 20 nL DMSO to wells in the culture plate to achieve the final desired concentrations of test compounds, and the cells were further incubated in culture conditions for 72 hr. The assay was terminated by addition of 25 μL of Cell Titer-Glo reagent (Promega, Madison, Wis.) to each well. Contents were mixed, the plate was incubated for 10 min at room temperature and luminescence was measured. The IC50 value of each test compound was calculated with XLFit curve fitting software. Results are shown in Table 4. ‘+++’ indicates IC50 values≤300 nM, ‘++’ indicates IC50 values between 300 nM-3 μM, and ‘+’ indicates IC50 values≥3 μM.

SMILES | IC50 (NCI-H358 cells) [nM] | IC50 [1] [nM] | IC50 (KRAS G12C protein) [nM] | IC50 (MIA PaCa-2) [nM]
CC#CC(=O)N1CCN(c2nc(OC[C@@H]3CCCN3C)nc3c2COC(c2cccc4cccc(Cl)c24)C3)C[C@@H]1CC#N (single isomer, unassigned) [243 (Isomer B)] | ≤ 100 | ≤ 300 | ≤ 300 | ≤ 300
C=C(F)C(=O)N1CCN(c2nc(OC[C@@H]3CCCN3C)nc3c2COC(c2c(C)ccc4[nH]ncc24)C3)C[C@@H]1CC#N (single isomer, unassigned) [52 (Isomer B)] | 100 to 2000 | 300 to 3000 | ≤ 300 | 300 to 3000
C/C=C/C(=O)N1CCN(c2nc(OC[C@@H]3CCCN3C)nc3c2COC(c2cccc4cccc(Cl)c24)C3)C[C@@H]1CC#N (single isomer, unassigned) [241 (Isomer A)] | ≤ 100 | ≤ 300 | ≤ 300 | 300 to 3000
